Laboratory results as given in ChEMBL document CHEMBL5727777, “Piperidin-4-yl azetidine derivatives as JAK1 inhibitors” (2020).

Molecular target: Tyrosine-protein kinase JAK1 (Homo sapiens, UniProt P23458)
Experiment: In vitro JAK Kinase Assay: The catalytic domains of human JAK1 (a.a. 837-1142), Jak2 (a.a. 828-1132) and Jak3 (a.a. 781-1124) with an N-terminal His tag were expressed using baculovirus in insect cells and purified. The catalytic activity of JAK1, JAK2 or JAK3 was assayed by measuring the phosphorylation of a biotinylated peptide. The phosphorylated peptide was detected by homogenous time resolved fluorescence (HTRF). […] Reactions were carried out at room temperature for 1 hr and then stopped with 20 μL 45 mM EDTA, 300 nM SA-APC, 6 nM Eu-Py20 in assay buffer (Perkin Elmer, Boston, Mass.). Binding to the Europium labeled antibody took place for 40 minutes and HTRF signal was measured on a Fusion plate reader (Perkin Elmer, Boston, Mass.)

Tyrosine-protein kinase JAK1, sequence (P23458 whole entry, the tested form may be a part): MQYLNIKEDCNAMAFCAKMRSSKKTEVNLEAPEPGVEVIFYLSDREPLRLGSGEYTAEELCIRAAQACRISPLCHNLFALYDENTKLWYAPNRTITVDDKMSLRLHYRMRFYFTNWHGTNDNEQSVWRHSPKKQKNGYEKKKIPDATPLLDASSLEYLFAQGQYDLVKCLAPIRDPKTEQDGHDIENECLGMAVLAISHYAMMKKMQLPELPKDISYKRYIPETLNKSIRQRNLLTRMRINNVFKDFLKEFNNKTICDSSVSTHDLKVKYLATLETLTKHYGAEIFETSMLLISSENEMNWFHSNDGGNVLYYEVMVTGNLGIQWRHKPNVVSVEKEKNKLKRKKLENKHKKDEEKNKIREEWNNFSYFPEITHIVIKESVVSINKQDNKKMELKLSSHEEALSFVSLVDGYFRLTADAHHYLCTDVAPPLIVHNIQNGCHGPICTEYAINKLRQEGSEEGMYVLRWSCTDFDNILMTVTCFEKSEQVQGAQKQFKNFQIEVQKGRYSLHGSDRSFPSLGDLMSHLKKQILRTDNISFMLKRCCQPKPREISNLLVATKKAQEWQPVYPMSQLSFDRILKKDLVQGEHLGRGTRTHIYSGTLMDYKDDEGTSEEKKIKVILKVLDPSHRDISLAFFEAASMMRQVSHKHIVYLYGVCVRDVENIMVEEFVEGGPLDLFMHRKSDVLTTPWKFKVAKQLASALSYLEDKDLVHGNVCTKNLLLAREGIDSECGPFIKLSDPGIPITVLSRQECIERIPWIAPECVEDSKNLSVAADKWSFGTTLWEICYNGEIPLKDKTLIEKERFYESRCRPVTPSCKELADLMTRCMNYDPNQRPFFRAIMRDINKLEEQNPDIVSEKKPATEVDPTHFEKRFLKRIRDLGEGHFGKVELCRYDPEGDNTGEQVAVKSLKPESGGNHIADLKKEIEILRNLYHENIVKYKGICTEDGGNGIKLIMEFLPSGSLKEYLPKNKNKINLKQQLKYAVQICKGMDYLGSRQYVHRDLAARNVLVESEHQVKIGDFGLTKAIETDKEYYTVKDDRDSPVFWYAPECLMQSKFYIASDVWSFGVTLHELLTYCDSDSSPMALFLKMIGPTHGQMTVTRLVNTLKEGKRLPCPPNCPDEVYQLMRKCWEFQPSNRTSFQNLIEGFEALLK

With `N#CCC1(n2cc(-c3ncnc4[nH]ccc34)cn2)CN(C2CCN(C(=O)OCC3CCCCC3)CC2)C1` the IC50 was < 5 nM.
